Measurements taken from the supplement of paper PMC10307832.

Columns and labels:
Assay in all cases: relative viability (nuclei count vs DMSO), 5 days (fraction); higher = more cells survive
[1] = compound: C1=CC2=NC=CN=C2C=C1/C=C/3\C(=O)NC(=O)S3 + COc1cccc2cc(-c3nc([C@H]4CC[C@H](C(=O)O)CC4)n4ncnc(N)c34)[nH]c12 [OSI-027] (partner 0.5 µM)
Outline: (§1)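 Nuclei were stained with Hoechst during a one-step fixation (final 0.05% Triton X-100, 1% formaldehyde, 1 ug/ml Hoechst) carried out 5 days after dosing, then counted on 4× images. The cells, lung cancer lines in 1536-well plates, had been dosed by pin tool the day after seeding with one drug alone or a fixed anchor-drug dose plus five library-drug doses (not always all listed) in √10 steps. Relative viability is the nuclei count in treated wells divided by that in vehicle wells, and each value is the median of duplicate plates.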

[2] = compound: C1=CC2=NC=CN=C2C=C1/C=C/3\C(=O)NC(=O)S3 + CS(=O)(=O)N1CCN(Cc2cc3nc(-c4cccc5[nH]ncc45)nc(N4CCOCC4)c3s2)CC1 [Pictilisib] (partner 1 µM)
Outline: as §1

[3] = compound: C1=CC2=NC=CN=C2C=C1/C=C/3\C(=O)NC(=O)S3 + C[C@]1(O)C[C@@H](c2nc(-c3ccc4ccc(-c5ccccc5)nc4c3)c3c(N)nccn32)C1 [Linsitinib] (partner 1 µM)
Outline: as §1

[4] = compound: C1=CC2=NC=CN=C2C=C1/C=C/3\C(=O)NC(=O)S3 + Cc1cc(Nc2cc(N3CCN(C)CC3)nc(Sc3ccc(NC(=O)C4CC4)cc3)n2)n[nH]1 [Tozasertib] (partner 0.1 µM)
Outline: as §1

Row | Cell Line | relative viability ([1]; first compound 0.02 µM) | relative viability ([1]; first compound 0.06325 µM) | relative viability ([1]; first compound 0.2 µM) | relative viability ([1]; first compound 0.6325 µM) | relative viability ([1]; first compound 2 µM) | relative viability ([2]; first compound 0.02 µM) | relative viability ([2]; first compound 0.06325 µM) | relative viability ([2]; first compound 0.2 µM) | relative viability ([2]; first compound 0.6325 µM) | relative viability ([2]; first compound 2 µM) | relative viability ([3]; first compound 0.02 µM) | relative viability ([3]; first compound 0.06325 µM) | relative viability ([3]; first compound 0.2 µM) | relative viability ([3]; first compound 0.6325 µM) | relative viability ([3]; first compound 2 µM) | relative viability ([4]; first compound 0.02 µM) | relative viability ([4]; first compound 0.06325 µM) | relative viability ([4]; first compound 0.2 µM) | relative viability ([4]; first compound 0.6325 µM) | relative viability ([4]; first compound 2 µM)
1 | NCI-H2009 | 0.682 | 0.659 | 0.701 | 0.579 | 0.452 | 0.859 | 0.891 | 0.964 | 0.712 | 0.744 | 1.16 | 1.26 | 1.26 | 1.18 | 1.2 | 0.747 | 0.77 | 0.721 | 0.744 | 0.761
2 | NCI-H2023 | 0.423 | 0.346 | 0.478 | 0.326 | 0.161 | 0.236 | 0.27 | 0.26 | 0.223 | 0.16 | 0.626 | 0.787 | 0.611 | 0.568 | 0.632 | 0.404 | 0.321 | 0.472 | 0.379 | 0.335
3 | NCI-H2085 | 0.75 | 0.847 | 0.82 | 0.827 | 0.635 | 0.417 | 0.394 | 0.533 | 0.455 | 0.486 | 0.807 | 0.886 | 0.826 | 0.806 | 0.969 | 0.813 | 0.874 | 0.848 | 0.848 | 0.731
4 | NCI-H2087 | 0.42 | 0.523 | 0.615 | 0.574 | 0.37 | 0.77 | 1.11 | 0.913 | 0.798 | 0.995 | 1.07 | 0.911 | 0.996 | 0.937 | 0.954 | 0.206 | 0.273 | 0.212 | 0.243 | 0.238
5 | NCI-H2126 | 0.627 | 0.629 | 0.735 | 0.734 | 0.363 | 0.448 | 0.56 | 0.498 | 0.474 | 0.411 | 0.682 | 0.773 | 0.715 | 0.688 | 0.685 | 0.841 | 0.882 | 0.857 | 0.759 | 0.528
6 | NCI-H2228 | 0.665 | 0.581 | 0.525 | 0.661 | 0.335 | 0.384 | 0.36 | 0.441 | 0.274 | 0.22 | 0.622 | 0.447 | 1.08 | 0.55 | 0.609 | 0.302 | 0.228 | 0.234 | 0.21 | 0.221
7 | NCI-H2347 | 0.505 | 0.306 | 0.412 | 0.5 | 0.276 | 0.706 | 0.609 | 0.748 | 0.527 | 0.757 | 1.01 | 0.957 | 0.957 | 0.993 | 0.92 | 0.553 | 0.554 | 0.546 | 0.633 | 0.601
8 | NCI-H2405 | 0.644 | 0.698 | 0.648 | 0.6 | 0.225 | 0.488 | 0.504 | 0.428 | 0.433 | 0.182 | 0.96 | 1.08 | 1.03 | 0.959 | 0.915 | 0.764 | 0.768 | 0.73 | 0.727 | 0.637
9 | NCI-H3122 | 0.935 | 1.16 | 0.89 | 1.03 | 0.46 | 0.697 | 0.487 | 0.578 | 0.547 | 0.364 | 1.01 | 1.15 | 0.955 | 1 | 1.17 | 0.401 | 0.418 | 0.331 | 0.38 | 0.4
10 | PC-3 [JPC-3] | 0.711 | 0.777 | 0.783 | 0.767 | 0.636 | 0.687 | 0.881 | 0.594 | 0.65 | 0.8 | 0.889 | 1.01 | 0.879 | 0.923 | 0.963 | 0.811 | 0.811 | 0.905 | 0.913 | 0.869
11 | PC-14 | 0.771 | 0.67 | 0.815 | 0.804 | 0.692 | 0.636 | 0.75 | 0.735 | 0.652 | 0.531 | 0.88 | 0.952 | 0.994 | 1.02 | 0.993 | 0.579 | 0.754 | 0.571 | 0.546 | 0.572
12 | RERF-LC-KJ | 0.571 | 0.569 | 0.704 | 0.606 | 0.332 | 0.502 | 0.457 | 0.492 | 0.518 | 0.482 | 0.82 | 1.03 | 0.894 | 0.811 | 0.853 | 0.443 | 0.613 | 0.592 | 0.452 | 0.46
13 | SK-LU-1 | 0.371 | 0.358 | 0.332 | 0.396 | 0.207 | 0.703 | 0.695 | 0.583 | 0.577 | 0.506 | 1.2 | 1.22 | 1.15 | 1.06 | 0.989 | 0.367 | 0.297 | 0.381 | 0.357 | 0.316
14 | SK-MES-1 | 0.658 | 0.467 | 0.715 | 0.577 | 0.392 | 0.385 | 0.391 | 0.375 | 0.353 | 0.335 | 1.04 | 1.25 | 1.09 | 0.95 | 1.04 | 0.894 | 0.884 | 0.998 | 0.965 | 0.934
15 | SW 1573 | 0.63 | 0.946 | 0.725 | 0.532 | 0.312 | 0.525 | 0.511 | 0.524 | 0.555 | 0.441 | 0.78 | 0.825 | 0.943 | 0.847 | 0.714 | 0.192 | 0.201 | 0.183 | 0.183 | 0.204
